From ChEMBL document CHEMBL1134987, “Novel spirocyclic pyrrolidones as P2/P1 mimetics in potent inhibitors of HIV-1 protease” (Bioorg Med Chem Lett, 2002)

Biological target: Human immunodeficiency virus type 1 protease (Human immunodeficiency virus 1, UniProt Q72874)
Assay: The compound was tested for its inhibition against HIV-1 protease

| Compound | Ki |
| --- | --- |
| COc1ccc(S(=O)(=O)N(CC2CCCC2)C[C@@H](O)CN2C(=O)C3(CCCCC3)OC[C@@H]2Cc2ccccc2)cc1 | 1.7 nM |
| O=C(N[C@H]1c2ccccc2C[C@H]1O)[C@H](Cc1ccccc1)C[C@H](O)CN1C(=O)C2(CCCCC2)C[C@@H]1Cc1ccccc1 | 50 nM |
| NC(C(=O)[C@H](Cc1ccccc1)C[C@H](O)CN1C(=O)[C@@H](Cc2ccccc2)C[C@@H]1Cc1ccccc1)[C@H]1c2ccccc2C[C@H]1O (stereo partly specified) | 0.05 nM |
| COc1ccc(S(=O)(=O)N(CC2CCCC2)C[C@@H](O)CN2C(=O)[C@@H](Cc3ccccc3)C[C@@H]2Cc2ccccc2)cc1 | 0.8 nM |
| O=C(N[C@H]1c2ccccc2C[C@H]1O)[C@H](Cc1ccccc1)C[C@H](O)CN1C(=O)C2(CCOCC2)C[C@@H]1Cc1ccccc1 | 23 nM |
| O=C(N[C@H]1c2ccccc2C[C@H]1O)[C@H](Cc1ccccc1)C[C@H](O)CN1C(=O)C2(CCN(Cc3ccccc3)CC2)C[C@@H]1Cc1ccccc1 | 2500 nM |
